# How the values were obtained:
# Type in all cases: cell-based
# NLRP3 inflammasome = biological target: T1, NLRP3 inflammasome (Homo sapiens, UniProt Q96P20); test: IL-1β secretion assay (nigericin-activated, PMA-differentiated THP-1 cells, HTRF); conditions: 15 μM nigericin, 3 h, arithmetic mean of at least 3 experiments
# T1 construct: NLRP3-dependent IL-1β secretion was stimulated in PMA-differentiated THP-1 cells by the addition of nigericin; host or cells: THP-1 cells, PMA-differentiated
# Description: Monocytic THP-1 cells (ATCC: TIB-202) were maintained according to providers' instructions in RPMI media (RPMI/Hepes+10% fetal bovine serum+Sodium Pyruvate+0.05 mM Beta-mercaptoethanol (1000× stock)+Pen-Strep). Cells were differentiated in bulk with 0.5 μM phorbol 12-myristate 13-acetate (PMA; Sigma #P8139) for 3 h, media was exchanged, and cells were plated at 50,000 cells per well in a 384-well flat-bottom cell culture plates (Greiner, #781986), and allowed to differentiate overnight. Compound in a 1:3.16 serial dilution series in DMSO was added 1:100 to the cells and incubated for 1 h. […] 10 μL supernatant was removed, and IL-1β levels were monitored using an HTRF (Homogeneous Time Resolved Fluorescence) assay (CisBio, #62IL1PEC) according to manufacturers' instructions.
# IC50 values were calculated from the plot of percentage of inhibition versus the inhibitor concentration by a logistics fit according to: y=A2+(A1−A2)/(1+(x/IC50)^p) where y is the %-inhibition at the inhibitor concentration, x. […] NLRP3-dependent IL-1β secretion was stimulated in PMA-differentiated THP-1 cells by the addition of nigericin, and cytokines were measured in the serum after 3 h. […] Data for IL-1β secretion was calculated as the arithmetic mean of at least 3 individual experiments, and TNF-α secretion data was consistent across at least 2 individual replicates.
# [1] = test system: Pam3CSK4-stimulated, NF-κB-dependent TNF-α secretion; test: TNF-α secretion assay (counter screen, THP-1 cells, HTRF); conditions: Homo sapiens, undifferentiated THP-1 cells, 3 h, at least 2 replicates
# Description: Monocytic THP-1 cells were maintained according to providers' instructions in RPMI media as described above. Undifferentiated cells were plated at 50,000 cells per well in a 384-well flat-bottom cell culture plates (Greiner, #781986), and allowed to rest overnight. Experimental compounds were prepared and added as described above. TNF-α secretion was triggered by the addition of either 1 μg/mL LPS (Sigma, #L4391) or 100 ng/ml Pam3CSK4 (Invivogen, #tlrl-pms) depending on the experiment, and cells were incubated for 3 h. 10 μL supernatant was removed, and TNF-α levels were monitored using an HTRF assay (CisBio, #62TNFPEC) according to manufacturers' instructions. Viability was monitored as
# IC50 values were calculated from the plot of percentage of inhibition versus the inhibitor concentration by a logistics fit according to: y=A2+(A1−A2)/(1+(x/IC50)^p) where y is the %-inhibition at the inhibitor concentration, x. A1 is the lowest inhibition value, i.e. 0%, and A2 the maximum inhibition value, i.e. 100%. The exponent, p, is the Hill coefficient. The curve fitting was conducted with an internally developed software suite. NLRP3-dependent IL-1β secretion was stimulated in PMA-differentiated THP-1 cells by the addition of nigericin, and cytokines were measured in the […] after 3 h. As discussed above, activation of the NLRP3 inflammasome requires both an NF-κB-dependent priming step and the addition of a NLRP3 activator. […] Data for IL-1β secretion was calculated as the arithmetic mean of at least 3 individual experiments, and TNF-α secretion data was consistent across at least 2 individual replicates.
# hERG [2] = biological target: T2, hERG (Homo sapiens, UniProt Q12809); test: hERG electrophysiological inhibition assay using the Qube technology (automated patch clamp, CHO cells); parameters: expressed in transfected cells; host or cells: CHO (T-REX) cells, tetracycline-induced; conditions: human, pH 7.4; 30 μM, CHO (T-REx) hERG cells, 35° C.
# Description: (§1) Chinese hamster ovary (CHO) cell line, overexpressing the alpha-subunit of the hERG channel under the control of tetracycline-regulated promoter, was created using commercially available T-REX™ system (Invitrogen). CHO (T-REX™) hERG cells were maintained in Ham's F-12 nutrient medium (Life Tech) supplemented with 10% fetal bovine serum (HyClone), 1% penicillin-streptomycin, 10 μg/mL Blasticidin and 50 μg/mL Zeocin (all from Life Technologies, Thermo Fisher Scientific). For hERG expression induction, 1 μg/ml tetracycline (Sigma-Aldrich) was added to the growth media 24 hours before the current recording. To prepare the cell suspension for Qube experiments, cells were dislodged from culture flask by incubation in Detachin (Genlantis) at 37° C. for approximately 5 min, and resuspended in CHO serum free media (CHO-SFM II, Life Technologies) at a density of 2-3 million cells per mL.
# (§2) Patch clamp experiments were performed on the Qube APC (automated patch clamp) platform (Sophion Bioscience A/S, Ballerup, Denmark) using the 384X 10-hole chip at 35° C. Intracellular KF-Ringer's solution consisted of (in mM) 120 KF, 20 KCl, […] ethylene glycol-bis(2-aminoethylether)-N,N,N′,N′-tetraacetic acid (EGTA) and 10 (4-(2-hydroxyethyl)-1-piperazineethanesulfonic acid (HEPES), pH at 7.2 with KOH. Extracellular solution consisted of (in mM) 145 NaCl, 4 KCl, 2 CaCl2, 1 MgCl2, 10 HEPES, 10 Glucose and 0.3% dimethyl sulfoxide (DMSO), pH at 7.4 with NaOH. The hERG current was elicited by applying the following voltage protocol: cells are held at −90 mV resting membrane potential for 100 msec, then clamped at −50 mV for 100 msec for leak estimation, depolarized to +20 mV for 4 sec (peak current measurement) and finally repolarized to −50 mV for 4 sec (tail current recording) before returning to the holding potential of −90 mV. The data are sampled at 10 KHz, with cutoff at 2 kHz, and filtered using the Bessel filter. The protocol was repeated every 15 s, 30 times before and 30 times after a compound application.
# All compounds were prepared as 10 mM stock in 100% DMSO, then serially dilutes 1:3 down in Labcyte 384-well Echo Qualified LDV (low diamond volume) microplate. […]
# (§3) The results were initially reviewed using the Qube specific Sophion Analyzer software (Sophion Bioscience), then analyzed using Data Analysis and Visualization in Discovery (DAVID) software package (Novartis AG). The compound effect on hERG current inhibition (normalized percentage of inhibition) was calculated as % Inh=(Icompound−Ivehicle)/Ivehicle*−100, where Icompound and Ivehicle are the averages of the last three leak-corrected tail hERG currents […] a compound application, respectively. […]
# [3] = biological target: T3, alpha-subunit of the hERG channel (Homo sapiens, UniProt Q12809); test: as above
# T3 construct: expressed in transfected cells; host or cells: CHO (T-REX) cells, tetracycline-induced
# Description: as §1, §2
# All compounds were prepared as 10 mM stock in 100% DMSO, then serially dilutes 1:3 down in Labcyte 384-well Echo Qualified LDV (low […] volume) microplate. The Qube assay plate was prepared by transferring 0.15-0.3 μL of a compound from the serial dilution plate to the 384-well Greiner plate using Labcyte Echo 650 liquid handler (Beckman). Right before the experiment, the compounds in each well were further diluted in extracellular solution using Biomek i7 liquid handler (Beckman) to create the final concentrations of 0.37, 1.1, 3.3, 10, 15 and 30 μM (1:333 dilution to keep the final DMSO concentration in all samples ≤0.3%). Amitriptyline hydrochloride (positive control) and DMSO (0.3%, vehicle control) were included in each plate.
# as §3
# hERG [4] = biological target: T2, hERG; test: hERG channel test using the QPatch technology (automated patch clamp, CHO cells); parameters: host or cells: CHO cells; conditions: for inhibition at 4 min, 30 µM: human, CHO cells stably expressing hERG channels, pH 7.4, highest test concentration 30 μM
# Description: CHO cells (AVIVA Biosciences Corp, San Diego, CA) stably expressing hERG channels were patched using a QPatch-HT automated patch clamp instrument (Sophion Bioscience A/S, Ballerup, Denmark) in single hole mode. The intracellular solution consisted of 120 mM KCl, 5 mM CaCl2, 2 mM MgCl2, 10 mM ethylene glycolbis (2-aminoethylether)-N,N,N′,N′-tetraacetic acid (EGTA), 10 mM (4-(2-hydroxyethyl)-1-piperazineethanesulfonic acid (HEPES), and 4 mM dipotassium adenosine-5′-triphosphate (ATP-K2), pH adjusted to 7.2 using KOH. The extracellular solution consisted of 145 mM NaCl, 4 mM KCl, 2 CaCl2, 1 mM MgCl2, 10 mM HEPES, and 0.3% dimethyl sulfoxide (DMSO), adjusted to pH 7.4 using NaOH. All measurements were performed at room temperature, and the blockers were pre-incubated for 4 min. The cells were voltage clamped at −90 mV and the hERG current was activated using a voltage step to +20 mV for 4 s. The hERG tail currents were measured by stepping down to −50 mV for 4 s before returning to −90 mV. This protocol was repeated every 20 s. The peak hERG current was automatically corrected by subtracting the leak current, which was estimated by measuring the mean current during a short depolarizing step to −50 mV from the resting membrane potential just prior to the long depolarizing step to • +20 mV at the beginning of the voltage protocol. Test articles were diluted using DMSO stock solutions and the extracellular solution. […] The effect of the test article on the hERG tail current was assessed and 1, 10 and 30 μM and a positive control (amitriptiline, 1, 3 and μM) was included on each plate.
# [5] = CHO (T-REx) hERG cells, 35° C., tail current
# [6] = CHO cells stably expressing hERG, room temperature
# T2 sequence (Q12809 whole entry): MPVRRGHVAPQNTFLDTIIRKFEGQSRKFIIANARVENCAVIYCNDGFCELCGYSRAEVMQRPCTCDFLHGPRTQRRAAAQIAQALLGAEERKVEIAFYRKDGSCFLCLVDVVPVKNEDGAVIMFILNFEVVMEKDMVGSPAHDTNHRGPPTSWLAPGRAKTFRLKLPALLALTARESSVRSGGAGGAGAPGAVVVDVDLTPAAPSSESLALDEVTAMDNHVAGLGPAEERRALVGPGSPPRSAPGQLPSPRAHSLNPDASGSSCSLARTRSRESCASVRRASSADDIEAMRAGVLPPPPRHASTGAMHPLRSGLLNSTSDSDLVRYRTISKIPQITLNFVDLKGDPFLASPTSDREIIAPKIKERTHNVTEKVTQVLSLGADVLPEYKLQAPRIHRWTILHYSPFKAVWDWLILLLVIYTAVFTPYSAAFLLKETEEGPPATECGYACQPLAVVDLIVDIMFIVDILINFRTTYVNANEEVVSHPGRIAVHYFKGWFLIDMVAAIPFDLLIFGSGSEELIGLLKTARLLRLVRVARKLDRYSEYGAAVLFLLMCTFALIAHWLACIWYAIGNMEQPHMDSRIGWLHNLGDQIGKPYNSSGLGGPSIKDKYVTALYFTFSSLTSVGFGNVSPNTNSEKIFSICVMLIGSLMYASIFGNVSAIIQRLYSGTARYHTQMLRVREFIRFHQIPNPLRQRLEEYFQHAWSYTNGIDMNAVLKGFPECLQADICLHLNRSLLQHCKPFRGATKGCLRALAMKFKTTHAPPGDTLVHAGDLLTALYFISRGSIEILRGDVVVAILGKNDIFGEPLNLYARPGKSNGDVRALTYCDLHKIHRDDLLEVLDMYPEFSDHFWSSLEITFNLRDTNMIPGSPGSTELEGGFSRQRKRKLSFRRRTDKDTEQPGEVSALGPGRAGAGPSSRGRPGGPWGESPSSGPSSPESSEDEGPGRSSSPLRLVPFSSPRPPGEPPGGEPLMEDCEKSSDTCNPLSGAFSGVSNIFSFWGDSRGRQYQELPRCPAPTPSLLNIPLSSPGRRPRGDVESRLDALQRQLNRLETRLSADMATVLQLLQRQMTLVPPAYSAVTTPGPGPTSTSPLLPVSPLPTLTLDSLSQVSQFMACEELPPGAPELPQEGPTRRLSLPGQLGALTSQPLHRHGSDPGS
# T3 sequence (Q12809 whole entry): as above
# T1 sequence (Q96P20 whole entry): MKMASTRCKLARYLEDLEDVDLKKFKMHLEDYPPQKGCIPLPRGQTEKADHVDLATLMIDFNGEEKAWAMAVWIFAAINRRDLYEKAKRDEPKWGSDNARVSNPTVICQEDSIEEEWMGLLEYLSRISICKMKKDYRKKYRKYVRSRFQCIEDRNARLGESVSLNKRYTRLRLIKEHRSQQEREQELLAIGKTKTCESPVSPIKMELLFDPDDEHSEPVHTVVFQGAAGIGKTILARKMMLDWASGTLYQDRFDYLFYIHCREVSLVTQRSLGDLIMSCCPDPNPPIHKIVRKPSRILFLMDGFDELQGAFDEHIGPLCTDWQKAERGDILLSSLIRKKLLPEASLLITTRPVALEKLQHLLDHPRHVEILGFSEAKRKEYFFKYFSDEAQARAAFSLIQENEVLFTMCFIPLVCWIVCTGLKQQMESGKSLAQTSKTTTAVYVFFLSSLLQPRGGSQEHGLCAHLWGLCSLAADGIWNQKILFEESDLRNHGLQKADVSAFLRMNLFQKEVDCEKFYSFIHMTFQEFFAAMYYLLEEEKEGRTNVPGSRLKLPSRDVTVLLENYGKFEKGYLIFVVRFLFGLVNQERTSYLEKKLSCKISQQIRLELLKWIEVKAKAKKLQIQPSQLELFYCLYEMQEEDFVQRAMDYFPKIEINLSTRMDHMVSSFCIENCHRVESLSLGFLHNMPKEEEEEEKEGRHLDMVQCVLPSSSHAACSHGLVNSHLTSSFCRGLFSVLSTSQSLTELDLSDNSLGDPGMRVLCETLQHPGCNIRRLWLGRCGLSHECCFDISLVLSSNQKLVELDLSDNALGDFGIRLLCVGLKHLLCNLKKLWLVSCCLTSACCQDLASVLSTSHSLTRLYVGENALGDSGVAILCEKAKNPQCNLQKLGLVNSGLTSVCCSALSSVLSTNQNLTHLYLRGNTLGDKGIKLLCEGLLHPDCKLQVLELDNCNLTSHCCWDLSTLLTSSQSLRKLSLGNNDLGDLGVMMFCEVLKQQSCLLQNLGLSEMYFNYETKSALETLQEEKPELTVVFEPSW
SMILES,IC50 (NLRP3 inflammasome),IC50 [1],"inhibition at 7.5 min, 30 µM (hERG [2])","IC50 [3, 5]",hERG Qube IC50 compared with reference examples 1 and 2 ([3]; comparison in words),"IC50 (hERG [4]; CHO cells stably expressing hERG, room temperature, tail current, tested at 1, 10 and 30 μM)",hERG QPatch IC50 compared with reference examples 1 and 2 (hERG [4]; comparison in words),"inhibition at 4 min, 30 µM (hERG [4]; [6])",IC50 ([3]; unit inferred),IC50 (hERG [4]; unit inferred)
"Cc1cc(C(F)(F)F)cc(O)c1-c1cc(CO)c(N[C@@H]2CCCN(C)C2)nn1 [Example 1, (R)-2-(5-(hydroxymethyl)-6-((1-methylpiperidin-3-yl)amino)pyridazin-3-yl)-3-methyl-5-(trifluoromethyl)phenol]",0.00072 µM,> 100 µM,40.9%,> 30 µM,considerably increased,> 30 µM,considerably increased,24.3%,–,–
"Cc1cc(-c2c(C)cc(C(F)(F)F)cc2O)nnc1N[C@@H]1CCCN(C)C1 [Reference ex. 1, (R)-3-Methyl-2-(5-methyl-6-((1-methylpiperidin-3-yl)amino)pyridazin-3-yl)-5-(trifluoromethyl)phenol]",–,> 33 µM,77.9%,–,–,–,–,64.7%,4.71 µM,13.1 µM
"Cc1cc(C(F)(F)F)cc(O)c1-c1cc(C(F)(F)F)c(N[C@@H]2CCCN(C)C2)nn1 [Reference ex. 2, (R)-3-methyl-2-(6-((1-methylpiperidin-3-yl)amino)-5-(trifluoromethyl)pyridazin-3-yl)-5-(trifluoromethyl)phenol]",–,> 100 µM,74.9%,–,–,–,–,93.6%,5.62 µM,3.9 µM
"Cc1cc(C(F)(F)F)cc(O)c1-c1nnc(N[C@@H]2CCCN(C)C2)c2c1COC2 [Reference ex. 3, 3-methyl-2-(4-(((R)-1-methylpiperidin-3-yl)amino)-5,7-dihydrofuro[3,4-d]pyridazin-1-yl)-5-(trifluoromethyl)phenol]",0.0037 µM,> 100 µM,49.8%,> 30 µM,–,–,–,–,–,–
